Laboratory results: patent US9708314B2, “Heterocyclic amide compound” (NISSAN CHEMICAL INDUSTRIES, LTD., priority 2013, dated 2017)

Key:
Type in all cases: in vivo
[1] = tested on: transplanted Oryza sativa; experiment: Test Example 1: effect on crop, application before weed generation in submerged conditions; settings: Application herbicide amount 320 g/ha; Seventeenth Table
In short: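 Pre-emergence water-surface application under 4 cm flooding, same day as sowing, with rice transplanted at 2.5 leaf stage. Dose given as g/ha. Plants grown at 25° C. to 30° C. and rated three weeks later on a 0 (≤5%) to 5 (≥90%) herbicidal-ratio scale.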

[2] = tested on: Abutilon theophrasti; experiment: Test Example 4: herbicidal effect by application to foliage (diluvial soil, plastic box); settings: for M (Abutilon theophrasti) herbicidal effect grade: Application herbicide amount 320 g/ha, foliage application
In short: (§1)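 Seeds sown in sterilized diluvial soil, covered ~1.5 cm, grown 14 days in greenhouse at 25° C. to 30° C. Emulsion formulation diluted in water to set rate (g/ha) and sprayed onto stems and leaves. Effect scored visually 3 weeks later on 0–5 scale (5 = ≥90% herbicidal ratio, 0 = ≤5%).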

[3] = tested on: Alopecurus myosuroides; experiment: as above; settings: for J (Alopecurus myosuroides) herbicidal effect grade: Application herbicide amount 320 g/ha, foliage application
In short: as §1

[4] = tested on: Amaranthus retroflexus; experiment: as above; settings: for N (Amaranthus retroflexus) herbicidal effect grade: Application herbicide amount 320 g/ha, foliage application
In short: as §1

[5] = tested on: Apera spica-venti.; experiment: as above; settings: for L (Apera spica-venti.) herbicidal effect grade: Application herbicide amount 320 g/ha, foliage application
In short: as §1

[6] = tested on: Avena fatua; experiment: as above; settings: for I (Avena fatua) herbicidal effect grade: Application herbicide amount 320 g/ha, foliage application
In short: as §1

[7] = tested on: Chenopodium album; experiment: as above; settings: for O (Chenopodium album) herbicidal effect grade: Application herbicide amount 320 g/ha, foliage application
In short: as §1

[8] = tested on: Digitaria ciliaris; experiment: as above; settings: for F (Digitaria ciliaris) herbicidal effect grade: Application herbicide amount 320 g/ha, foliage application
In short: as §1

[9] = tested on: Echinochloa crus-galli var. crus-galli; experiment: as above; settings: for H (Echinochloa crus-galli var. crus-galli) herbicidal effect grade: Application herbicide amount 320 g/ha, foliage application
In short: as §1

[10] = tested on: Galium spurium; experiment: as above; settings: Application herbicide amount 320 g/ha; foliage application
In short: as §1

[11] = tested on: Lolium multiflorum Lam.; experiment: as above; settings: for K (Lolium multiflorum Lam.) herbicidal effect grade: Application herbicide amount 320 g/ha, foliage application
In short: as §1

[12] = tested on: Setaria viridis; experiment: as above; settings: for G (Setaria viridis) herbicidal effect grade: Application herbicide amount 320 g/ha, foliage application
In short: as §1

[13] = tested on: Stellaria media; experiment: as above; settings: for P (Stellaria media) herbicidal effect grade: Application herbicide amount 320 g/ha, foliage application
In short: as §1

[14] = tested on: Veronica persica; experiment: as above; settings: for R (Veronica persica) herbicidal effect grade: Application herbicide amount 320 g/ha, foliage application
In short: as §1

[15] = tested on: Beta vulgaris ssp. vulgaris; experiment: Test Example 4: effect on crop by application to foliage (diluvial soil, plastic box); settings: for f (Beta vulgaris ssp. vulgaris) effect on crop grade: Application herbicide amount 320 g/ha, foliage application
In short: as §1

[16] = tested on: Brassica campestris L.; experiment: as above; settings: for g (Brassica campestris L.) effect on crop grade: Application herbicide amount 320 g/ha, foliage application
In short: as §1

[17] = tested on: Glycine max; experiment: as above; settings: for d (Glycine max) effect on crop grade: Application herbicide amount 320 g/ha, foliage application
In short: as §1

[18] = tested on: Triticum aestivum; experiment: as above; settings: for e (Triticum aestivum) effect on crop grade: Application herbicide amount 320 g/ha, foliage application
In short: as §1

[19] = tested on: Zea mays; experiment: as above; settings: for c (Zea mays) effect on crop grade: Application herbicide amount 320 g/ha, foliage application
In short: as §1

[20] = tested on: directly sowed Oryza sativa; experiment: as above; settings: for b (directly sowed Oryza sativa) effect on crop grade: Application herbicide amount 320 g/ha, foliage application
In short: as §1

[21] = application to foliage, application herbicide amount 320 g/ha

SMILES	a: transplanted Oryza sativa (effect on crop grade) [1]	M (Abutilon theophrasti) herbicidal effect grade [2]	J (Alopecurus myosuroides) herbicidal effect grade [3]	N (Amaranthus retroflexus) herbicidal effect grade [4]	L (Apera spica-venti.) herbicidal effect grade [5]	I (Avena fatua) herbicidal effect grade [6]	O (Chenopodium album) herbicidal effect grade [7]	F (Digitaria ciliaris) herbicidal effect grade [8]	H (Echinochloa crus-galli var. crus-galli) herbicidal effect grade [9]	Q (Galium spurium) herbicidal effect grade [10]	K (Lolium multiflorum Lam.) herbicidal effect grade [11]	G (Setaria viridis) herbicidal effect grade [12]	P (Stellaria media) herbicidal effect grade [13]	R (Veronica persica) herbicidal effect grade [14]	f (Beta vulgaris ssp. vulgaris) effect on crop grade [15]	g (Brassica campestris L.) effect on crop grade [16]	d (Glycine max) effect on crop grade [17]	e (Triticum aestivum) effect on crop grade [18]	c (Zea mays) effect on crop grade [19]	b (directly sowed Oryza sativa) effect on crop grade [20]	further results
Cc1nnc(NC(=O)c2ccc(C(F)(F)F)n3c(C4(C)CC4(Cl)Cl)nnc23)o1 (stereo not shown) [1-105]	0 (Herbicidal ratio of 5% or less (almost no effect))	3 (Herbicidal ratio of 40% or more and less than 70%)	1 (Herbicidal ratio of 5% or more and less than 20%)	3 (Herbicidal ratio of 40% or more and less than 70%)	1 (Herbicidal ratio of 5% or more and less than 20%)	1 (Herbicidal ratio of 5% or more and less than 20%)	5 (Herbicidal ratio of 90% or more (almost completely withered))	4 (Herbicidal ratio of 70% or more and less than 90%)	4 (Herbicidal ratio of 70% or more and less than 90%)	1 (Herbicidal ratio of 5% or more and less than 20%)	1 (Herbicidal ratio of 5% or more and less than 20%)	1 (Herbicidal ratio of 5% or more and less than 20%)	4 (Herbicidal ratio of 70% or more and less than 90%)	3 (Herbicidal ratio of 40% or more and less than 70%)	4 (Herbicidal ratio of 70% or more and less than 90%)	3 (Herbicidal ratio of 40% or more and less than 70%)	2 (Herbicidal ratio of 20% or more and less than 40%)	1 (Herbicidal ratio of 5% or more and less than 20%)	1 (Herbicidal ratio of 5% or more and less than 20%)	0 (Herbicidal ratio of 5% or less (almost no effect))	–
CCSc1nnc2c(C(=O)Nc3nnco3)ccc(C(F)(F)F)n12 [1-106]	1 (Herbicidal ratio of 5% or more and less than 20%)	4 (Herbicidal ratio of 70% or more and less than 90%)	1 (Herbicidal ratio of 5% or more and less than 20%)	5 (Herbicidal ratio of 90% or more (almost completely withered))	3 (Herbicidal ratio of 40% or more and less than 70%)	4 (Herbicidal ratio of 70% or more and less than 90%)	5 (Herbicidal ratio of 90% or more (almost completely withered))	5 (Herbicidal ratio of 90% or more (almost completely withered))	5 (Herbicidal ratio of 90% or more (almost completely withered))	4 (Herbicidal ratio of 70% or more and less than 90%)	3 (Herbicidal ratio of 40% or more and less than 70%)	5 (Herbicidal ratio of 90% or more (almost completely withered))	5 (Herbicidal ratio of 90% or more (almost completely withered))	5 (Herbicidal ratio of 90% or more (almost completely withered))	5 (Herbicidal ratio of 90% or more (almost completely withered))	4 (Herbicidal ratio of 70% or more and less than 90%)	3 (Herbicidal ratio of 40% or more and less than 70%)	3 (Herbicidal ratio of 40% or more and less than 70%)	1 (Herbicidal ratio of 5% or more and less than 20%)	3 (Herbicidal ratio of 40% or more and less than 70%)	–
COCCOCc1nnc2c(C(=O)Nc3nnco3)ccc(C(F)(F)F)n12 [1-107]	2 (Herbicidal ratio of 20% or more and less than 40%)	4 (Herbicidal ratio of 70% or more and less than 90%)	3 (Herbicidal ratio of 40% or more and less than 70%)	5 (Herbicidal ratio of 90% or more (almost completely withered))	3 (Herbicidal ratio of 40% or more and less than 70%)	4 (Herbicidal ratio of 70% or more and less than 90%)	5 (Herbicidal ratio of 90% or more (almost completely withered))	5 (Herbicidal ratio of 90% or more (almost completely withered))	5 (Herbicidal ratio of 90% or more (almost completely withered))	4 (Herbicidal ratio of 70% or more and less than 90%)	3 (Herbicidal ratio of 40% or more and less than 70%)	5 (Herbicidal ratio of 90% or more (almost completely withered))	5 (Herbicidal ratio of 90% or more (almost completely withered))	5 (Herbicidal ratio of 90% or more (almost completely withered))	5 (Herbicidal ratio of 90% or more (almost completely withered))	5 (Herbicidal ratio of 90% or more (almost completely withered))	5 (Herbicidal ratio of 90% or more (almost completely withered))	3 (Herbicidal ratio of 40% or more and less than 70%)	1 (Herbicidal ratio of 5% or more and less than 20%)	4 (Herbicidal ratio of 70% or more and less than 90%)	–
CC(C)c1nnc2c(C(=O)N(C)c3nnnn3C)ccc(C(F)(F)F)n12 [2-023]	3 (Herbicidal ratio of 40% or more and less than 70%)	–	–	–	–	–	–	–	–	–	–	–	–	–	–	–	–	–	–	–	M: herbicidal effect on Abutilon theophrasti [2, 21]: 3 (Herbicidal ratio of 40% or more and less than 70%); J: herbicidal effect on Alopecurus myosuroides [3, 21]: 0 (Herbicidal ratio of 5% or less (almost no effect)); N: herbicidal effect on Amaranthus retroflexus [4, 21]: 5 (Herbicidal ratio of 90% or more (almost completely withered)); L: herbicidal effect on Apera spica-venti. [5, 21]: 0 (Herbicidal ratio of 5% or less (almost no effect)); I: herbicidal effect on Avena fatua [6, 21]: 0 (Herbicidal ratio of 5% or less (almost no effect)); O: herbicidal effect on Chenopodium album [7, 21]: 4 (Herbicidal ratio of 70% or more and less than 90%); F: herbicidal effect on Digitaria ciliaris [8, 21]: 1 (Herbicidal ratio of 5% or more and less than 20%); H: herbicidal effect on Echinochloa crus-galli var. crus-galli [9, 21]: 4 (Herbicidal ratio of 70% or more and less than 90%); K: herbicidal effect on Lolium multiflorum Lam. [11, 21]: 0 (Herbicidal ratio of 5% or less (almost no effect)); G: herbicidal effect on Setaria viridis [12, 21]: 1 (Herbicidal ratio of 5% or more and less than 20%); P: herbicidal effect on Stellaria media [13, 21]: 3 (Herbicidal ratio of 40% or more and less than 70%); R: herbicidal effect on Veronica persica [14, 21]: 4 (Herbicidal ratio of 70% or more and less than 90%); f: effect on crop, Beta vulgaris ssp. vulgaris [15, 21]: 4 (Herbicidal ratio of 70% or more and less than 90%); g: effect on crop, Brassica campestris L. [16, 21]: 1 (Herbicidal ratio of 5% or more and less than 20%); d: effect on crop, Glycine max [17, 21]: 1 (Herbicidal ratio of 5% or more and less than 20%); e: effect on crop, Triticum aestivum [18, 21]: 0 (Herbicidal ratio of 5% or less (almost no effect)); c: effect on crop, Zea mays [19, 21]: 0 (Herbicidal ratio of 5% or less (almost no effect)); b: effect on crop, directly sowed Oryza sativa [20, 21]: 0 (Herbicidal ratio of 5% or less (almost no effect))
